system: P. aeruginosa, PAM1723, overexpressing the MexAB-OprM efflux pump; format: cell-based, Pseudomonas aeruginosa; settings: lowest EPI concentration giving antibacterial activity with levofloxacin at 1/8 of its MIC, MHB, 20 h at 35° C.
Procedure: All EPI compounds were readily soluble in water and stock solutions were prepared at a final concentration of 10 mg/ml. Stock solutions were further diluted, according to the needs of the particular assay, in Mueller Hinton Broth (MHB). Stock solution was stored at […].
The checkerboard assay was performed in microtiter plates. […] EPIs were diluted in the y-axis, each row containing a single concentration of an EPI. […] The assay was performed in MHB with a final bacterial inoculum of 5 times 10^5 CFU/ml (from an early-log phase culture). Microtiter plates were incubated during 20 h at 35° C. and were read using a microtiter plate reader (Molecular Devices) at 650 nm as well as visual observation using a microtiter plate-reading mirror.

| SMILES | MPC8 (Minimum Potentiating Concentration) |
| --- | --- |
| CC1(C)OB(O)c2cc(C(=O)NC[C@@H](CCc3ccc(C(F)(F)F)cc3)NC(=O)[C@@H](N)CCC(=O)N(CCN)CCN)ccc21 [Compound 106, (S)-2-amino-N^5,N^5-bis(2-aminoethyl)-N^1-((R)-1-(1-hydroxy-3,3-dimethyl-1,3-dihydrobenzo[c][1,2]oxaborole-6-carboxamido)-4-(4-(trifluoromethyl)phenyl)butan-2-yl)pentanediamide] | B (B = MPC8 of 2.5 μg/ml to less than 10 μg/mL.) |
| NCCN(CCN)C(=O)CC[C@H](N)C(=O)N[C@H](Cc1ccc(C(F)(F)F)cc1)C(=O)Nc1ccc(C(F)(F)F)c(B(O)O)c1 [Compound 16, 5-((R)-2-((S)-2-amino-5-(bis(2-aminoethyl)amino)-5-oxopentanamido)-3-(4-(trifluoromethyl)phenyl)propanamido)-2-(trifluoromethyl)phenylboronic acid] | C (C = MPC8 of 10 μg/mL or greater.) |
| N[C@@H]1C[C@H](N)C[C@H](NC(=O)CC[C@H](N)C(=O)N[C@H](CCc2ccc(C(F)(F)F)cc2)C(=O)Nc2ccc3c(c2)B(O)OC3)C1 [Compound 66, (S)-2-amino-N^5-((1s,3R,5S)-3,5-diaminocyclohexyl)-N^1-((R)-1-(1-hydroxy-1,3-dihydrobenzo[c][1,2]oxaborol-6-ylamino)-1-oxo-4-(4-(trifluoromethyl)phenyl)butan-2-yl)pentanediamide] | B (B = MPC8 of 2.5 μg/ml to less than 10 μg/mL.) |
| CC1(C)OB(O)c2cc(NC(=O)[C@@H](Cc3ccc(C(F)(F)F)cc3)NC(=O)[C@@H](N)CCCNC(=O)C(CN)CN)ccc21 [Compound 104, (S)-2-amino-5-(3-amino-2-(aminomethyl)propanamido)-N-((R)-1-(1-hydroxy-3,3-dimethyl-1,3-dihydrobenzo[c][1,2]oxaborol-6-ylamino)-1-oxo-3-(4-(trifluoromethyl)phenyl)propan-2-yl)pentanamide] | B (B = MPC8 of 2.5 μg/ml to less than 10 μg/mL.) |
| NCCN(CCN)C(=O)CC[C@H](N)C(=O)N[C@H](CCc1ccc(C(F)(F)F)cc1)C(=O)Nc1cnc2ccc(B(O)O)cc2c1 [Compound 44, 3-((R)-2-((S)-2-amino-5-(bis(2-aminoethyl)amino)-5-oxopentanamido)-4-(4-(trifluoromethyl)phenyl)butanamido)quinolin-6-ylboronic acid] | A (A = MPC8 of less than 2.5 μg/mL.) |
| CC1(C)OB(O)c2c(NC(=O)[C@@H](CCc3ccc(C(F)(F)F)cc3)NC(=O)[C@@H](N)CCC(=O)N(CCN)CCN)cccc21 [Compound 102, (S)-2-amino-N^5,N^5-bis(2-aminoethyl)-N^1-((R)-1-(1-hydroxy-3,3-dimethyl-1,3-dihydrobenzo[c][1,2]oxaborol-7-ylamino)-1-oxo-4-(4-(trifluoromethyl)phenyl)butan-2-yl)pentanediamide] | B (B = MPC8 of 2.5 μg/ml to less than 10 μg/mL.) |
| NCCN(CCN)C(=O)CC[C@H](N)C(=O)N[C@H](CCc1ccc(C(F)(F)F)cc1)C(=O)Nc1cc(B(O)O)cc(F)c1F [Compound 28, 3-((R)-2-((S)-2-amino-5-(bis(2-aminoethyl)amino)-5-oxopentanamido)-4-(4-(trifluoromethyl)phenyl)butanamido)-4,5-difluorophenylboronic acid] | A (A = MPC8 of less than 2.5 μg/mL.) |
| NCCN(CCN)C(=O)CC[C@H](N)C(=O)N[C@H](Cc1ccc(C(F)(F)F)cc1)C(=O)Nc1ccc2c(c1)B(O)OC2 [Compound 1, (S)-2-amino-N5,N5-bis(2-aminoethyl)-N1-((R)-1-(1-hydroxy-1,3-dihydrobenzo[c][1,2]oxaborol-6-ylamino)-1-oxo-3-(4-(trifluoromethyl)phenyl)propan-2-yl)pentanediamide] | C (C = MPC8 of 10 μg/mL or greater.) |
| CC1(C)OB(O)c2ccc(NC(=O)[C@@H](CCc3ccc(C(F)(F)F)cc3)NC(=O)[C@@H](N)CCC(=O)N(CCN)CCN)cc21 [Compound 94, (S)-2-amino-N^5,N^5-bis(2-aminoethyl)-N^1-((R)-1-(1-hydroxy-3,3-dimethyl-1,3-dihydrobenzo[c][1,2]oxaborol-5-ylamino)-1-oxo-4-(4-(trifluoromethyl)phenyl)butan-2-yl)pentanediamide] | A (A = MPC8 of less than 2.5 μg/mL.) |
| NCCN(CCN)C(=O)CC[C@H](N)C(=O)N[C@H](CCc1ccc(C(F)(F)F)cc1)C(=O)Nc1ccc(B(O)O)c(F)c1 [Compound 29, 4-((R)-2-((S)-2-amino-5-(bis(2-aminoethyl)amino)-5-oxopentanamido)-4-(4-(trifluoromethyl)phenyl)butanamido)-2-fluorophenylboronic acid] | B (B = MPC8 of 2.5 μg/ml to less than 10 μg/mL.) |
| NCCN(CCN)C(=O)C[C@H](N)C(=O)N[C@@H](Cc1ccc(C(F)(F)F)cc1)C(=O)Nc1cc(B(O)O)cc(C(F)(F)F)c1 [Compound 11, 3-((S)-2-((S)-2-amino-4-(bis(2-aminoethyl)amino)-4-oxobutanamido)-3-(4-(trifluoromethyl)phenyl)propanamido)-5-(trifluoromethyl)phenylboronic acid] | B (B = MPC8 of 2.5 μg/ml to less than 10 μg/mL.) |
| NCCN(CCN)C(=O)C[C@H](N)C(=O)N[C@H](CCc1ccc(C(F)(F)F)cc1)C(=O)Nc1ccc2c(c1)B(O)OC2 [Compound 7, (S)-2-amino-N4,N4-bis(2-aminoethyl)-N1-((R)-1-(1-hydroxy-1,3-dihydrobenzo[c][1,2]oxaborol-6-ylamino)-1-oxo-4-(4-(trifluoromethyl)phenyl)butan-2-yl)succinamide] | B (B = MPC8 of 2.5 μg/ml to less than 10 μg/mL.) |
| NCCN(CCN)C(=O)CC[C@H](N)C(=O)N[C@H](CCc1ccc(C(F)(F)F)cc1)C(=O)NCC1OB(O)c2ccccc21 (stereo in doubt) [Compound 36, (S)-2-amino-N5,N5-bis(2-aminoethyl)-N1-((R)-1-(((R)-1-hydroxy-1,3-dihydrobenzo[c][1,2]oxaborol-3-yl)methylamino)-1-oxo-4-(4-(trifluoromethyl)phenyl)butan-2-yl)pentanediamide] | B (B = MPC8 of 2.5 μg/ml to less than 10 μg/mL.) |
| CC1(C)OB(O)c2cc(NC(=O)[C@@H](CCc3ccc(C(F)(F)F)cc3)NC(=O)[C@@H](N)CCC(=O)N(CCN)CCN)ccc21 [Compound 26, (S)-2-amino-N5,N5-bis(2-aminoethyl)-N1-((R)-1-(1-hydroxy-3,3-dimethyl-1,3-dihydrobenzo[c][1,2]oxaborol-6-ylamino)-1-oxo-4-(4-(trifluoromethyl)phenyl)butan-2-yl)pentanediamide] | A (A = MPC8 of less than 2.5 μg/mL.) |
| NCCN(CCN)C(=O)CC[C@H](N)C(=O)N[C@H](CCc1ccc(C(F)(F)F)cc1)C(=O)Nc1cc(F)cc(B(O)O)c1 [Compound 33, 3-((R)-2-((S)-2-amino-5-(bis(2-aminoethyl)amino)-5-oxopentanamido)-4-(4-(trifluoromethyl)phenyl)butanamido)-5-fluorophenylboronic acid] | A (A = MPC8 of less than 2.5 μg/mL.) |
| CC1(C)OB(O)c2ccc(NC(=O)[C@@H](COc3ccc(C(F)(F)F)cc3)NC(=O)[C@@H](N)CCC(=O)NC(CN)CN)cc21 [Compound 97, (S)-2-amino-N^5-(1,3-diaminopropan-2-yl)-N^1-((R)-1-(1-hydroxy-3,3-dimethyl-1,3-dihydrobenzo[c][1,2]oxaborol-5-ylamino)-1-oxo-3-(4-(trifluoromethyl)phenoxy)propan-2-yl)pentanediamide] | B (B = MPC8 of 2.5 μg/ml to less than 10 μg/mL.) |
| CC1(C)OB(O)c2ccc(CNC(=O)[C@@H](CCc3ccc(C(F)(F)F)cc3)NC(=O)[C@@H](N)CCC(=O)N(CCN)CCN)cc21 [Compound 93, (S)-2-amino-N^5,N^5-bis(2-aminoethyl)-N^1-((R)-1-((1-hydroxy-3,3-dimethyl-1,3-dihydrobenzo[c][1,2]oxaborol-5-yl)methylamino)-1-oxo-4-(4-(trifluoromethyl)phenyl)butan-2-yl)pentanediamide] | B (B = MPC8 of 2.5 μg/ml to less than 10 μg/mL.) |
| CC1(C)OB(O)c2cc(NC(=O)[C@@H](Cc3ccc(C(F)(F)F)cc3)NC(=O)[C@@H](N)CCC(=O)N3C[C@@H](N)C[C@H](N)C3)ccc21 [Compound 74, (S)-2-amino-5-((3S,5S)-3,5-diaminopiperidin-1-yl)-N-((R)-1-(1-hydroxy-3,3-dimethyl-1,3-dihydrobenzo[c][1,2]oxaborol-6-ylamino)-1-oxo-3-(4-(trifluoromethyl)phenyl)propan-2-yl)-5-oxopentanamide] | B (B = MPC8 of 2.5 μg/ml to less than 10 μg/mL.) |
| CC1(C)OB(O)c2cc(NC(=O)[C@@H](Cc3ccc(C(F)(F)F)cc3)NC(=O)[C@@H](N)CCC(=O)N3C[C@H](N)C[C@H](N)C3)ccc21 [Compound 67, (S)-2-amino-5-((3R,5S)-3,5-diaminopiperidin-1-yl)-N-((R)-1-(1-hydroxy-3,3-dimethyl-1,3-dihydrobenzo[c][1,2]oxaborol-6-ylamino)-1-oxo-3-(4-(trifluoromethyl)phenyl)propan-2-yl)-5-oxopentanamide] | B (B = MPC8 of 2.5 μg/ml to less than 10 μg/mL.) |

— patent publication US8933018B2, “Boron containing polybasic bacterial efflux pump inhibitors and therapeutic uses thereof” (priority 2011, dated 2015)
